Experimental data: patent publication US9012153B2, “Method for screening olfactory sensibility inhibitor” (Kao Corporation, priority 2008, dated 2015)

What was measured:
[1] = system: voltage-dependent cation channel; assay: Whole-cell recording of inward current in isolated olfactory receptor cells; assay type: cell-based, Cynops pyrrhogaster
Description: Olfactory receptor cells were isolated from newts (Cynops pyrrhogaster) through a known method (Kurahashi et al., J. Physiol. (1989), 419: 177-192) and bathed in a normal Ringer's solution. More specifically, each newt which had been hibernated in ice-water was double-pithed, and the skull thereof was cut, to thereby remove the olfactory membrane. The removed olfactory membrane was incubated in 0.1% collagenase solution at 37° C. for five minutes. After washing off collagenase, the membrane tissue was broken by means of a glass pipette, to thereby isolate olfactory cells. The normal Ringer's solution had the following composition: NaCl 110 mM, KCl 3.7 mM, CaCl2 3 mM, MgCl2 1 mM, glucose 15 mM, sodium pyruvate 1 mM, HEPES 2 mM, and Phenol Red 0.001% (w/v), with a pH of 7.4 (adjusted with NaOH).
The membrane current of the isolated olfactory cells was recorded through the whole-cell recording method, while the membrane potential was fixed (Kawai et al., J. Gen. Physiol. (1997), vol. 109: 265-272). The electrode employed was produced from borosilicate glass capillary (diameter: 1.2 mm) by means of a puller for electrode fabrication (PP-830, product of Narishige Scientific Instruments). […] Then, an electrode solution was added in the electrode, and an Ag—AgCl wire was inserted into the electrode. The Ag—AgCl wire was connected to a patch-clamp amplifier (Axopatch 1D, 200B, product of Axon Instrument), whereby fixation of the membrane potential and depolarization stimulation were performed. The employed electrode solution had the following composition: KCl 120 mM, HEPES 2 mM, and Phenol Red 0.001% (w/v), with a pH of 7.4 (adjusted with KOH). The membrane current was recorded by a computer which was connected by the mediation of the patch-clamp amplifier and an A/D converter (Digidata 1320, product of Axon Instrument). Each test substance was sprayed to the cells for stimulation, by means of a pressure-controller. The pressure controller is an apparatus which reduces the pressure of compressed air supplied by means of an air-compressor to a specific value under computer-controlled conditions and which feeds the compressed air for a predetermined period of time to a tail of the glass pipette in which the test substance has been charged (Ito et al., The Japanese Journal of Physiology, 1995, vol. 57, 127-133).
In order to investigate the effect of the test substance on the voltage-dependent cation channel activity, the membrane potential of the isolated olfactory cells was fixed to −100 mV, and depolarized to −20 mV for 20 ms at intervals of 200 ms. The peak amplitude of the inward current elicited immediately after depolarization was measured. Each of the test substances shown in Table 1 (1 μL) was mixed with the normal Ringer's solution (1 mL). Under continuous depolarization stimulation, the mixture was sprayed toward the olfactory cells (720 ms, at 50 kPa) through a glass pipette (tip diameter: 1 μm) that was placed such that the tip of the pipette was located in the vicinity ([…]) of the olfactory cells to add the mixture to the olfactory cells, and the change in inward current was monitored. Stimulation of one olfactory cell by the test substance was performed three times, and the three inward currents obtained from the cell were averaged. Each test substance was tested by three olfactory cells, and the three inward currents obtained from the cells were averaged. During the test, in very rare cases, the olfactory receptor responded to stimulation by the test substance, and inward current attributed to a CNG channel was observed. However, such cases were eliminated for evaluation. One conceivable reason for occurrence of such a case is that the test substance acts as an […] to the olfactory receptor on the olfactory cell employed in the test. CNG channel current is readily distinguishable from voltage-dependent channel current in terms of amplitude, peak shape, and duration. […]

[2] = system: isovaleric acid (malodorous substance); assay: Olfactory masking test based on sensory evaluation with 20 specialists; assay type: in vivo; design: key: 0 = no masking effect, 5 = complete masking effect; conditions: isovaleric acid (1%) 2 μL, test substance 4 μl, vaporized and admixed in PP bottle; scale 0 (No masking effect) to 5 (Complete masking effect)
Description: An olfactory masking test based on sensory evaluation was performed with 20 specialists. Isovaleric acid (1%) was used as a malodorous substance, and each of the substances listed in Table 2 was employed as a masking material. The malodorous substance (2 μL) and each test substance (4 μl) were separately absorbed by cotton balls (diameter: 1 cm), and placed in each injection syringe (capacity: 50 mL) at room temperature for 12 hours to vaporized the substance therein. Both the vaporized malodorous substance and the vaporized test substance were injected into a PP bottle (capacity: 500 mL) with a cap and admixed in the bottle. In evaluation, each specialist slightly opened the cap of the PP bottle and smelled the odor in the bottle, whereby the masking score was determined. The masking score was evaluated by the following six criteria, based on the intensity of odor in a PP bottle to which only the malodorous substance had been added.
1: Only slight masking effect
3: Satisfactory masking effect
4: Substantially complete masking effect
5: Complete masking effect

[3] = test substance 1 μL in 1 mL normal Ringer's solution, sprayed 720 ms at 50 kPa, depolarized from −100 mV to −20 mV, (1−b/a)×100, average of three cells
[4] = values calculated in the experiments of Example 1, repeated in Table 3

## CCCCCCCCC=O [n-Nonanal]
[1]; [3]
  Percent inward current inhibition: 107.4%

## C=CCc1ccc(O)c(OC)c1 [Eugenol]
[1]; [3]
  Percent inward current inhibition: 105.0%

## OCCc1ccccc1 [β-Phenylethyl alcohol]
[2]
  Masking score: 2.9
[1]; [3]
  Percent inward current inhibition: 82.6%
[1]; [4]
  Percent inward current inhibition: 82.6%

## C/C=C/C(=O)C1=C(C)CCCC1(C)C [β-Damascone]
[2]
  Masking score: 2.4
[1]; [3]
  Percent inward current inhibition: 56.1%
[1]; [4]
  Percent inward current inhibition: 56.1%

## CCCCCC1C(=O)CCC1CC(=O)OC (centres unmarked) [Methyl dihydrojasmonate]
[1]; [3]
  Percent inward current inhibition: 107.1%

## C=CC(C)(O)CCC=C(C)C (centres unmarked) [Linalool]
[2]
  Masking score: 4.1
[1]; [3]
  Percent inward current inhibition: 106.5%
[1]; [4]
  Percent inward current inhibition: 106.5%

## CC(C)=CCCC(C)=CC=O [Citral]
[2]
  Masking score: 3.9
[1]; [3]
  Percent inward current inhibition: 110.6%
[1]; [4]
  Percent inward current inhibition: 110.6%

## CCC(O)COC1CCCCC1C(C)(C)C (centres unmarked) [1-(2-tert-Butylcyclohexyloxy)-2-butanol]
[2]
  Masking score: 1.7
[1]; [3]
  Percent inward current inhibition: 27.1%
[1]; [4]
  Percent inward current inhibition: 27.1%

## CC(=CCC1CC=C(C)C1(C)C)CO (centres unmarked) [2-Methyl-4-(2,2,3-trimethyl-3-cyclopenten-1-yl)-2-buten-1-ol]
[1]; [3]
  Percent inward current inhibition: 105.6%

## CCOC(=O)C(C)CC (centres unmarked) [Ethyl 2-methylbutyrate]
[1]; [3]
  Percent inward current inhibition: 42.0%

## CC(C)(O)CCCC1=CCC(C=O)CC1 (centres unmarked) [4-(4-Hydroxy-4-methylpentyl)-3-cyclohexene-1-carboxaldehyde]
[2]
  Masking score: 1.7
[1]; [3]
  Percent inward current inhibition: 35.7%
[1]; [4]
  Percent inward current inhibition: 35.7%

## CC(C)=CCC/C(C)=C/CO [Geraniol]
[2]
  Masking score: 3.9
[1]; [3]
  Percent inward current inhibition: 90.1%
[1]; [4]
  Percent inward current inhibition: 90.1%

## CC(=O)OC1CCCCC1C(C)(C)C (centres unmarked) [o-tert-Butylcyclohexyl acetate]
[2]
  Masking score: 1.8
[1]; [3]
  Percent inward current inhibition: 23.8%
[1]; [4]
  Percent inward current inhibition: 23.8%

## O=Cc1ccccc1 [Benzaldehyde]
[2]
  Masking score: 4.6
[1]; [3]
  Percent inward current inhibition: 95.4%
[1]; [4]
  Percent inward current inhibition: 95.4%

## C=CC(C)(CCC=C(C)C)OC(C)=O (centres unmarked) [Linalyl acetate]
[2]
  Masking score: 3.0
[1]; [3]
  Percent inward current inhibition: 43.3%
[1]; [4]
  Percent inward current inhibition: 43.3%

## CC(=O)OCCC(C)C [Isoamyl acetate]
[2]
  Masking score: 4.5
[1]; [3]
  Percent inward current inhibition: 92.0%
[1]; [4]
  Percent inward current inhibition: 92.0%

## CCOC(=O)C(C)C1CCCCC1 (centres unmarked) [Ethyl 2-cyclohexylpropionate]
[2]
  Masking score: 3.0
[1]; [3]
  Percent inward current inhibition: 48.7%
[1]; [4]
  Percent inward current inhibition: 48.7%

## C=CC(C)CCCC(C)(C)O (centres unmarked) [Dihydromyrcenol]
[2]
  Masking score: 4.8
[1]; [3]
  Percent inward current inhibition: 109.0%
[1]; [4]
  Percent inward current inhibition: 109.0%

## CC(C=O)Cc1ccc(C(C)(C)C)cc1 (stereo not drawn) [p-tert-Butyl-α-methylhydrocinnamaldehyde]
[1]; [3]
  Percent inward current inhibition: 57.9%
[1]; [4]
  Percent inward current inhibition: 57.9%

## COc1ccc(C=O)cc1 [Anisaldehyde]
[2]
  Masking score: 3.9
[1]; [3]
  Percent inward current inhibition: 89.3%
[1]; [4]
  Percent inward current inhibition: 89.3%

## O=C(OCc1ccccc1)c1ccccc1 [Benzyl benzoate]
[2]
  Masking score: 1.6
[1]; [3]
  Percent inward current inhibition: 10.7%
[1]; [4]
  Percent inward current inhibition: 10.7%

## CC12CCC(CC1)C(C)(C)O2 [1,8-Cineole]
[2]
  Masking score: 3.6
[1]; [3]
  Percent inward current inhibition: 46.5%
[1]; [4]
  Percent inward current inhibition: 46.5%

## CC/C=C\CCO [cis-3-Hexenol]
[2]
  Masking score: 4.5
[1]; [3]
  Percent inward current inhibition: 78.7%
[1]; [4]
  Percent inward current inhibition: 78.7%

## CC1=CC(C)C(C=O)CC1 (centres unmarked) [2,4-Dimethyl-3-cyclohexene-1-carboxaldehyde]
[2]
  Masking score: 4.5
[1]; [3]
  Percent inward current inhibition: 79.9%
[1]; [4]
  Percent inward current inhibition: 79.9%

## CC(=O)OCc1ccccc1 [Benzyl acetate]
[1]; [3]
  Percent inward current inhibition: 110.8%

## CCOC(=O)C12CCCC1C1CCC2C1 (centres unmarked) [Ethyltricyclo[5.2.1.0^2,6]decane-2-carboxylate]
[2]
  Masking score: 1.9
[1]; [3]
  Percent inward current inhibition: 11.6%
[1]; [4]
  Percent inward current inhibition: 11.6%
